Results from patent publication EP0300107A1, “Ester, thioester and amide derivatives of oxolinic acid, process for their synthesis and their therapeutical use” (VETOQUINOL S.A., priority 1987, dated 1989).
Like-named read-outs stand apart in the source and are kept apart here.

Key:
[1] = Plasma levels after intramuscular injection in the rat; type: in vivo
Procedure: c/ Détermination des taux plasmatiques après injection par voie intramusculaire chez le rat
Dose administrée : 20 mg/kg en équivalent acide oxolinique TABLEAU V

[2] = Plasma levels after intravenous injection in the dog; set-up: species or system chien; conditions: in vivo
Procedure: b/ Détermination des taux plasmatiques après injection intraveineuse chez le chien
Dose administrée : 15 mg/kg en équivalent acide oxolinique TABLEAU IV

[3] = Plasma levels after intramuscular injection in the dog; set-up: species or system chien; conditions: in vivo; for concentration at 0.5 h / concentration at 1 h / concentration at 2 h / concentration at 4 h / concentration at 6 h / concentration at 12 h / concentration at 24 h: dog, im
Procedure: a/ Détermination des taux plasmatiques après injection par voie intramusculaire chez le chien
Dose administrée : 15 mg/kg en équivalent acide oxolinique (Comparaison avec l'activité pharmacocinétique de l'acide oxolinique) TABLEAU III

[4] = Presence of the active principle in tissues after intramuscular injection in the rat; type: in vivo; conditions: i.m., 20 mg/kg en équivalent acide oxolinique
Procedure: d/ Détermination de la présence du principe actif dans les tissus après injection par voie intramusculaire chez le rat
Dose administrée : 20 mg/kg en équivalent acide oxolinique TABLEAU VI

[5] = Solubility in water and in usual solvents; conditions: qualitative statement
[6] = Acute toxicity, lethal dose 50 in the mouse; conditions: in vivo, souris, read-out: DL 50 (the source's name)
Procedure: La toxicité des composés selon l'invention a également été étudiée par la mesure de la dose léthale 50 (DL 50) chez la souris et ils se sont révélés être satisfaisants sur ce plan. A titre d'exemple, on notera que pour le composé JL 93V, la DL 50 (souris; voie intraveineuse) est de 240 mg/kg et que la DL 50 (souris; voie orale) est de 1120 mg/kg.

[7] = Hydrolysis kinetics at room temperature; type: physicochemical
Description: Ainsi par exemple, l'étude cinétique à température ambiante de l'hydrolyse du composé JL 93V (stable en milieu faiblement acide et en milieu neutre) montre qu'il y a libération d'environ 50 % du principe actif (acide oxolinique) après 24 heures d'hydrolyse en milieu hydroxyde de sodium 0,001 M et coupure immédiate de la liaison ester en milieu hydroxyde de sodium 0,1 M. Cette liaison ester, tout comme d'ailleurs la liaison thioester ou amide, apparaît donc comme étant suffisamment labile par hydrolyse pour libérer le principe actif dans l'organisme.

## CCn1cc(C(=O)O)c(=O)c2cc3c(cc21)OCO3 [Acide oxolinique, acide oxolinique, reference compound]
[1]; i.m., 20 mg/kg en équivalent acide oxolinique, 6 h
  Taux plasmatiques: nul
[1]; i.m., 20 mg/kg en équivalent acide oxolinique, 24 h
  Taux plasmatiques: nul
[1]; in vivo, im, 20 mg/kg en équivalent acide oxolinique, 1 h, read-out: Taux plasmatiques
  concentration at 1 h: 785 ng/mL
[1]; in vivo, im, 20 mg/kg en équivalent acide oxolinique, 3 h, read-out: Taux plasmatiques
  concentration at 3 h: 225 ng/mL
[2]; chien, i.v., 15 mg/kg en équivalent acide oxolinique, 0,5 h, read-out: Taux plasmatiques
  concentration at 0.5 h: 36800 ng/mL
[2]; chien, i.v., 15 mg/kg en équivalent acide oxolinique, 1 h, read-out: Taux plasmatiques
  concentration at 1 h: 29800 ng/mL
[2]; chien, i.v., 15 mg/kg en équivalent acide oxolinique, 2 h, read-out: Taux plasmatiques
  concentration at 2 h: 22300 ng/mL
[2]; chien, i.v., 15 mg/kg en équivalent acide oxolinique, 6 h, read-out: Taux plasmatiques
  concentration at 6 h: 8890 ng/mL
[2]; chien, i.v., 15 mg/kg en équivalent acide oxolinique, 8 h, read-out: Taux plasmatiques
  concentration at 8 h: 5650 ng/mL
[2]; chien, i.v., 15 mg/kg en équivalent acide oxolinique, 10 h, read-out: Taux plasmatiques
  concentration at 10 h: 3590 ng/mL
[2]; chien, i.v., 15 mg/kg en équivalent acide oxolinique, 24 h, read-out: Taux plasmatiques
  concentration at 24 h: 150 ng/mL
[3]; chien, i.m., 15 mg/kg en équivalent acide oxolinique, 0,5 h, read-out: Taux plasmatiques
  concentration at 0.5 h: 6060 ng/mL
[3]; chien, i.m., 15 mg/kg en équivalent acide oxolinique, 1 h, read-out: Taux plasmatiques
  concentration at 1 h: 6550 ng/mL
[3]; chien, i.m., 15 mg/kg en équivalent acide oxolinique, 2 h, read-out: Taux plasmatiques
  concentration at 2 h: 5460 ng/mL
[3]; chien, i.m., 15 mg/kg en équivalent acide oxolinique, 4 h, read-out: Taux plasmatiques
  concentration at 4 h: 3030 ng/mL
[3]; chien, i.m., 15 mg/kg en équivalent acide oxolinique, 6 h, read-out: Taux plasmatiques
  concentration at 6 h: 2470 ng/mL
[3]; chien, i.m., 15 mg/kg en équivalent acide oxolinique, 12 h, read-out: Taux plasmatiques
  concentration at 12 h: 1430 ng/mL
[3]; chien, i.m., 15 mg/kg en équivalent acide oxolinique, 24 h, read-out: Taux plasmatiques
  concentration at 24 h: 980 ng/mL
[4]; 1 h
  Présence dans les tissus (foie, poumons, reins, muscles): nulle
[4]; 3 h
  Présence dans les tissus (foie, poumons, reins, muscles): nulle
[4]; 6 h
  Présence dans les tissus (foie, poumons, reins, muscles): nulle
[4]; 24 h
  Présence dans les tissus (foie, poumons, reins, muscles): nulle
[5]
  solubilité dans l'eau ou les solvants organiques habituellement utilisés en galénique: relativement peu soluble

## CCOCCOCCOC(=O)c1cn(CC)c2cc3c(cc2c1=O)OCO3 [JL 93V]
[1]; in vivo, 20 mg/kg
  Taux plasmatiques: nul
  aire sous la courbe: plus importante
[1]; in vivo, im, 20 mg/kg
  concentration at 1 h: 15700 ng/mL
  concentration at 3 h: 8780 ng/mL
  concentration at 6 h: 3420 ng/mL
[2]; 15 mg/kg
  concentration at 0.5 h: 33600 ng/mL
  concentration at 1 h: 30200 ng/mL
  concentration at 2 h: 23400 ng/mL
  concentration at 6 h: 10900 ng/mL
  concentration at 8 h: 8230 ng/mL
  concentration at 10 h: 6350 ng/mL
  concentration at 24 h: 1190 ng/mL
[3]; 15 mg/kg
  concentration at 0.5 h: 7250 ng/mL
  concentration at 1 h: 16100 ng/mL
  concentration at 2 h: 15600 ng/mL
  concentration at 4 h: 10800 ng/mL
  concentration at 6 h: 6080 ng/mL
  concentration at 12 h: 2310 ng/mL
  concentration at 24 h: 450 ng/mL
  aire sous la courbe (taux en fonction du temps): plus importante
[6]; iv, voie intraveineuse
  LD50: 240 mg/kg
[6]; po, voie orale
  LD50: 1120 mg/kg
[7]; 0.001 m naoh, room temperature, after 24 heures of hydrolysis in hydroxyde de sodium 0,001 M, read-out: libération du principe actif (acide oxolinique)
  degraded at 24 h: ~50%
[7]; milieu faiblement acide and milieu neutre
  stabilité: stable
[7]; room temperature, hydroxyde de sodium 0,1 M
  coupure de la liaison ester: immédiate
